Reference: patent US20160346226A1, “Therapeutic Applications Of Prenylated Stilbenoids Against Rotavirus Infections” (ARKANSAS STATE UNIVERSITY, priority 2015, published 2016)
Read-outs that look alike come from different tables or passages of the source.

What was measured:
RV SA114F [1] = test: Plaque forming unit (PFU) assay of the same supernatants; format: cell-based, simian rotavirus SA114F; conditions: 20 μM, average of three experiments, HT29.f8 supernatants
RV SA114F [2] = test: Focus forming unit (FFU) viral titer of supernatants of RV-infected HT29.f8 cells treated with stilbenoids; format: cell-based, simian rotavirus SA114F
[3] = tested on: cannabinoid receptor 1 (CB1R); conditions: cited from earlier work; for mode of action at CB1R: reference [19]; for modulation of the cannabinoid receptors: references [18, 19]
[4] = tested on: rotavirus (Wa) infected HT29.f8 cells; test: TEM observations of cell ultrastructure of rotavirus (Wa) infected HT29.f8 cells; format: cell-based, human; conditions: 20 μM, 18 hpi
Excerpt: Observations of Cell Ultrastructure with TEM of Rotavirus (RV) Infected HT29.f8 Cells w/without t-A3
Mitochondria (M), rotavirus particles (RV), and a nucleolus (N) can be seen. Final Magnification=8,300×.

RV-infected MA104 cells = conditions: reference [29]; cited from earlier work
mammalian cells = conditions: all cell lines, reference [3]; cited from earlier work
[5] = tested on: human leukemia HL-60 cells; conditions: reference [2]; cited from earlier work

SMILES: Oc1ccc(/C=C/c2cc(O)cc(O)c2)cc1 [t-Res, Trans-resveratrol, reference compound]
- difference in PFU/ml versus RV only and RV with DMSO (RV SA114F [1]): no statistical differences
- change in virus titer (FFU) compared to RV-infected control (RV SA114F [2]; 20 μM, 24 hours post-infection, HT29.f8 cells): no change in the virus titer

SMILES: CC(C)/C=C/c1c(O)cc(/C=C/c2ccc(O)cc2)cc1O [t-A3, trans-arachidin-3]
- mode of action at CB1R [3]: competitive cannabinoid receptor 1 (CB1R) antagonist
- modulation of the cannabinoid receptors [3]: modulate the cannabinoid receptors at micromolar levels
- RV particles observed that were noninfectious, immature enveloped particles [4]: about 50%
- autophagic vesicles (AV) ([4]; RV(Wa)): absent
- mitochondria ultrastructure ([4]; RV(Wa)): Many mitochondria present with normal ultrastructure
- nucleoli ([4]; RV(Wa)): Nucleoli present
- vesicles in the cytoplasm ([4]; RV(Wa)): not as many as in the RV(Wa) only
- difference in PFU/ml versus RV only and RV with DMSO (RV SA114F [1]): one hundred fold difference
- change in virus titer (FFU) compared to RV-infected control (RV SA114F [2]): one hundred fold decrease in virus titer

SMILES: CCCCCCCCCCCCCCOc1ccc(C(=O)O)o1 [TOFA, 5-(tetradecyloxy)-2-furoic acid]
- virus infectivity and viral RNA production (RV-infected MA104 cells): dose-dependent reduction

SMILES: CC(C)/C=C/c1c(O)cc(/C=C/c2ccc(O)c(O)c2)cc1O [t-A1, Trans-Arachidin-1]
- cytotoxicity (mammalian cells): highest but moderate cytotoxicity
- mode of action at CB1R [3]: antagonize CB1R agonists by both competitive and non-competitive mechanisms
- modulation of the cannabinoid receptors [3]: modulate the cannabinoid receptors at micromolar levels
- difference in PFU/ml versus RV only and RV with DMSO (RV SA114F [1]): one hundred fold difference
- change in virus titer (FFU) compared to RV-infected control (RV SA114F [2]): one hundred fold decrease in virus titer
- programmed cell death [5]: inducing programmed cell death
